Patent US20220211694A1, “QUINOLINE DERIVATIVES FOR TREATMENT OF HEAD AND NECK CANCER” (CHIA TAI TIANQING PHARMACEUTICAL GROUP CO., LTD., priority 2019, published 2022)
Structures can show the parent of a compound that is named as a salt.

Tests used:
[1] = tested on: human laryngeal squamous cell carcinoma Hep-2 cell line; assay: MTT cell growth inhibition, Hep-2 cell line; assay type: cell-based; details: MTT method, in vitro
Protocol: (§1) The test drugs were dissolved in dimethyl sulfoxide to prepare a 100 mmol/L stock solution, which was stored at −20° C. for later use. When in use, the stock solution was diluted with a DMEM serum culture medium to a desired concentration.
(§2) The human laryngeal squamous cell carcinoma Hep-2 cell line and the human laryngeal carcinoma TU212 cell line were separately cultured in a DMEM complete culture medium containing 10% fetal bovine serum and 0.1 g/L streptomycin and penicillin (the final concentration is 100 U·mL^−1), and the mixtures were incubated in an incubator at 37° C./5% CO2. When the cell fusion reached about 85%, the cells were mixed and digested using 0.02% EDTA and 0.25% trypsin, and then the cells were collected, centrifuged at 1000 r/min, and subcultured.
(§3) The IC50 value can be measured by a conventional method in the art (e.g., conventional MTT method), or can be measured by the following method (MTT method). […]
(§4) Half maximal inhibitory concentration IC50 was calculated according to inhibition rates at all concentrations using GraphPad Prism 5 software.

[2] = tested on: human oral squamous cell carcinoma HSC-4 cell line; assay: MTT cell growth inhibition, HSC-4 cell line; assay type: cell-based; details: MTT method, in vitro
Protocol: as §1
(§5) The human oral squamous cell carcinoma scc4 cell line, the human oral squamous cell carcinoma CAL-27 cell line and the human oral squamous cell carcinoma HSC-4 cell line were separately cultured in a DMEM complete culture medium containing 10% fetal bovine serum and 0.1 g/L streptomycin and penicillin (the final concentration is 100 U·mL^−1), and the mixtures were incubated in an incubator at 37° C./5% CO2. When the cell confluence reached about 85%, the cells were mixed and digested using 0.02% EDTA and 0.25% trypsin, and then the cells were collected, centrifuged at 1000 r/min, and subcultured.
as §3, §4

[3] = tested on: human oral squamous cell carcinoma scc4 cell line; assay: MTT cell growth inhibition, scc4 cell line; assay type: cell-based; details: MTT method, in vitro
Protocol: as §1, §5, §3, §4

[4] = tested on: human laryngeal carcinoma TU212 cell line; assay: MTT cell growth inhibition, TU212 cell line; assay type: cell-based; details: MTT method, in vitro
Protocol: as §1, §2, §3, §4

[5] = tested on: human oral squamous cell carcinoma CAL-27 cell line; assay: MTT cell growth inhibition, CAL-27 cell line; assay type: cell-based; details: MTT method, in vitro
Protocol: as §1, §5, §3, §4

[6] = tested on: head and neck adenocarcinoma; assay: Clinical study of anlotinib hydrochloride capsules in recurrent/metastatic head and neck adenocarcinomas; assay type: in vivo, human; details: patients with head and neck adenocarcinoma; 12 mg once daily orally, d1-14 of each 21-day cycle
head and neck cancer = assay: Clinical study of anlotinib with intensity modulated radiotherapy in previously untreated head and neck cancer; assay type: in vivo, human; details: patients with head and neck cancer; anlotinib 10 mg/day combined with radiotherapy
Protocol: Previously untreated patients with pathologically confirmed head and neck cancer, specifically including ones with nasopharyngeal carcinoma, tonsil cancer, floor of mouth cancer, oral cancer, laryngeal cancer and hypopharyngeal cancer, were all received intensity modulated radiotherapy after administration of anlotinib. The administration regimens are detailed below. Anlotinib: administered about one week before radiotherapy, 10 mg/day for a three-cycle treatment, consecutively two-week treatment and then one-week interruption, and whether the medicine was administered continuously was determined according to the change in tumors after radiotherapy. The efficacy evaluation observation indexes include 3-year overall survival (OS), […] (DFS), 3-year distant metastasis rate and local control rate. Patient, pathologically diagnosed with tonsil cancer, starting taking anlotinib hydrochloride capsules on Oct. 10, 2018 once daily, orally before breakfast at a dose of 10 mg each time, with consecutively two-week treatment and then one-week interruption; starting receiving radiation therapy on Oct. 15, 2018. Patient, pathologically diagnosed with nasopharyngeal carcinoma, starting taking anlotinib hydrochloride capsules on Nov. […]

| SMILES | effect on the proliferation of the human laryngeal squamous cell carcinoma cells [1] | effect on the proliferation of the human oral squamous cell carcinoma cells [2] | effect on the proliferation of the human oral squamous cell carcinoma cells [3] | effect on the proliferation of the human laryngeal carcinoma cells [4] | effect on the proliferation of the human oral squamous cell carcinoma cells [5] | clinical benefits [6] | clinical benefits (head and neck cancer) |
| --- | --- | --- | --- | --- | --- | --- | --- |
| COc1cc2c(Oc3ccc4[nH]c(C)cc4c3F)ccnc2cc1OCC1(N)CC1 [dihydrochloride of the compound I] | clear inhibitory effect | clear inhibitory effect | clear inhibitory effect | clear inhibitory effect | clear inhibitory effect |  |  |
| COc1cc2c(Oc3ccc4[nH]c(C)cc4c3F)ccnc2cc1OCC1(N)CC1 [anlotinib, 1-[[[4-(4-fluoro-2-methyl-1H-indol-5-yl)oxy-6-methoxyquinolin-7-yl]oxy]methyl]cyclopropylamine] |  |  |  |  |  | had clinical benefits | had clinical benefits |
